Reference: patent publication US10766912B2 (priority 2017, dated 2020)
Where two headings read alike, the source gives them in different places.

Tests used:
[1] = system: HCV GT1b/3a NS5A chimeric replicon; test: Assay Example 2: activity against GT1b/3a NS5A chimeric replicon; type: cell-based; conditions: Hepatitis C virus, Huh-7, 72 h, read-out: EC50 Value GT1b/3a-NS5A-wt
Procedure: (§1) Cells: Huh-7 cells are liver cancer cell strains (from AppTec, USA), HCV GT1a and GT1b wild type (wt) replicons, GT1b/3a, GT1b/4a, GT1b/5a and GT1b/6a NS5A chimeric replicons.
(§2) Treatment of Compound: According to the assay final concentrations of the compounds in Table 5, DMSO stock solutions of the compounds were diluted and then added to a 96-well assay plate. The final concentration of DMSO was 0.5%.
(§3) The preparation of cells: After replicon plasmid DNA was linearized with a corresponding restriction enzyme, the DNA was transcribed into RNA by using T7 RNA polymerase. Replicon RNA prepared by transcription in vitro was transfected into Huh-7 cells by electroporation. Transfected cells were seeded at a density of 10,000 cells per well into the 96-well assay plate containing the diluted compounds, and then placed in a 37° C. incubator with 5% CO2 and cultured for 3 days.
(§4) Drug activity assay: Luminescence signal value (RLU) was detected with Envision within 15 minutes using the luciferase assay reagent Britelite plus, and the original data (RLU) was used for the calculation of the activity of the compounds.
(§5) The cytotoxicity of the compounds was calculated by using the equation below: Cell Viability %=(CPD−HPE)/(ZPE−HPE)×100%* The activity of the compounds was calculated by using the equation below: Inhibition %=(ZPE−CPD)/(ZPE−HPE)×100%*
(§6) The cell viability percentages (Viability %) and the inhibition percentages (Inhibition %) were imported into GraphPad Prism software, respectively, and curves were fitted by using nonlinear regression method to obtain the corresponding curves of the compounds, and the cytotoxicity (CC50) thereof and the inhibitory activity (EC50) values against the HCV replicon thereof.

[2] = system: HCV GT1a wild type (wt) replicon; test: Assay Example 2: activity against HCV GT1a wild-type replicon; type: cell-based; conditions: Hepatitis C virus, 72 h, Huh-7 cells, transient transfection, 3 days
Procedure: as §1, §2, §3, §4, §5, §6

[3] = system: GT1a-NS5A-Y93H mutant replicon; test: Assay Example 6: drug resistance, activity against GT1a-NS5A-Y93H mutant replicon; type: cell-based, hepatitis C virus; conditions: for GT1a-NS5A-Y93H Fold change: EC50 mutant versus GT1a-wt; for EC50: Hepatitis C virus, GT1A, Huh-7, 72 h, read-out: GT1a-NS5A-Y93H EC50 value
Procedure: (§7) Cells: Huh-7 cells are liver cancer cell strains (from AppTec, USA), HCVGT1a wild-type replicon and GT1a-NS5A-Y93H and GT1a-NS5A-L31V mutant replicons
(§8) Treatment of Compound: According to the assay final concentrations of the compounds in Table 11, DMSO stock solutions of the compounds were diluted and then added to a 96-well assay plate. The final concentration of DMSO was 0.5%.
as §3
(§9) Compound activity assay: Luminescence signal value (RLU) was detected with Envision within 5 minutes by using the luciferase assay reagent Britelite plus, and the original data (RLU) was used for the calculation of the activity of the compounds.
(§10) The activity of the compounds was calculated by using the equation below: Inhibition %=(CPD−ZPE)/(HPE−ZPE)×100%*
(§11) The compound activity percentages (Inhibition %) were imported into GraphPad Prism software, and curves were fitted by using nonlinear regression method to obtain the corresponding curves of the compounds and the inhibitory activity (EC50) values against the HCV replicon thereof.

[4] = system: HCV GT1a wild-type replicon; test: Assay Example 6: drug resistance, activity against HCV GT1a wild-type replicon; type: cell-based; conditions: Hepatitis C virus, 72 h, Huh-7 cells, transient transfection, 3 days, read-out: GT1a-wt EC50 value
Procedure: as §7, §8, §3, §9, §10, §11

[5] = system: GT1a-NS5A-L31V mutant replicon; test: Assay Example 6: drug resistance, activity against GT1a-NS5A-L31V mutant replicon; type: cell-based, hepatitis C virus; conditions: for GT1a-NS5A-L31V Fold change: EC50 mutant versus GT1a-wt; for EC50: Hepatitis C virus, GT1A, Huh-7, 72 h, read-out: GT1a-NS5A-L31V EC50 value
Procedure: as §7, §8, §3, §9, §10, §11

[6] = Assay Example 2: cell viability assay (CellTiter-Fluor), GT1b wild-type replicon plate; type: cell-based; conditions: human, Huh-7 cells with GT1b wild-type replicon, read-out: CC50 Value GT1b-wt
Procedure: as §1, §2, §3
Cell viability assay: A cell growth fluorescent titration detection reagent CellTiter-Fluor was added to the 96-well plate of the GT1b wild-type replicon. After the cells were cultured for 1 hour in a 37° C. incubator with 5% CO2, the fluorescence signal value (RFU) was detected by Envision, and the original data (RFU) was used for the calculation of the cytotoxicity of the compounds.
as §5, §6

[7] = system: HCV GT1b wild type (wt) replicon; test: Assay Example 2: activity against HCV GT1b wild-type replicon; type: cell-based; conditions: Hepatitis C virus, read-out: EC50 Value GT1b-wt
Procedure: as §1, §2, §3, §4, §5, §6

[8] = system: HCV GT1b/4a NS5A chimeric replicon; test: Assay Example 2: activity against GT1b/4a NS5A chimeric replicon; type: cell-based; conditions: Hepatitis C virus, Huh-7, 72 h, read-out: EC50 Value GT1b/4a-NS5A-wt
Procedure: as §1, §2, §3, §4, §5, §6

[9] = system: HCV GT1b/5a NS5A chimeric replicon; test: Assay Example 2: activity against GT1b/5a NS5A chimeric replicon; type: cell-based; conditions: Hepatitis C virus, Huh-7, 72 h, read-out: EC50 Value GT1b/5a-NS5A-wt
Procedure: as §1, §2, §3, §4, §5, §6

[10] = Assay Example 3: parallel cytotoxicity assay (alamarBlue) without viral infection; type: cell-based; conditions: human, Huh7.5.1 cells without viral infection, no viral infection, read-out: CC50 Value HCVcc
Procedure: (§12) Cells: Huh7.5.1 cells and hepatitis C virus HCVcc (GT2a, JFH-1) infection system.
(§13) Treatment of Compound: According to the assay final concentrations of the compounds in Table 6, DMSO stock solutions of the compounds were diluted and then added to a 96-well assay plate. The final concentration of DMSO was 0.5%.
(§14) Viral infection: Huh7.5.1 cells were seeded in a 96-well cell culture plate, and the cells were cultured overnight at 37° C. in an incubator with 5% CO2 for later use. The compound and the HCVcc virus solution (MOI=0.1) were simultaneously added to the cells, and the virus infection was cultured for 3 days. Parallel cytotoxicity assay was identical to the method for the inhibition of the virus but without viral infection.
Cell viability assay: Cell viability was detected by the addition of alamarBlue assay reagent. The original data (RFU) was used for the calculation of the cytotoxicity of the compounds.
The cytotoxicity of the compounds was calculated by using the equation below: Cell Viability %=CPD/CC×100%*
(§15) The cell viability percentages (Cell Viability %) and the compound activity percentages (Inhibition %) were imported into GraphPad Prism software, respectively, and curves were fitted by using nonlinear regression method to obtain the corresponding curves of the compounds, and the cytotoxicity (CC50) thereof and inhibitory activity (EC50) values against the HCV replicon thereof.

[11] = system: HCV GT1b/6a NS5A chimeric replicon; test: Assay Example 2: activity against GT1b/6a NS5A chimeric replicon; type: cell-based; conditions: Hepatitis C virus, Huh-7, 72 h, read-out: EC50 Value GT1b/6a-NS5A-wt
Procedure: as §1, §2, §3, §4, §5, §6

[12] = system: hepatitis C virus HCVcc (GT2a, JFH-1); test: Assay Example 3: activity against infective hepatitis C virus HCVcc (GT2a, JFH-1); type: cell-based; conditions: Huh-7.5.1, 72 h, read-out: EC50 Value GT2a HCVcc
Procedure: as §12, §13, §14
Drug activity assay: The activity of hRLuc was detected by the addition of Renilla luciferase assay reagent. The original data (RLU) was used for the calculation of the activity of the compounds.
The activity of the compounds was calculated by using the equation below: Inhibition %=(CPD−VC)/(CC−VC)×100%*
as §15

[13] = Huh-7 cells transfected with HCV GT1b wild-type replicon RNA
[14] = 72 h, Huh-7 cells, transient transfection, 3 days

COC(=O)N[C@H](C(=O)N1CCC[C@H]1c1nc2cc([C@H]3CC[C@H](c4ccc5[nH]c([C@@H]6CCCN6C(=O)[C@@H](NC(=O)OC)[C@@H](C)OC)nc5c4)N3c3cc(F)c(N4CC[Si]5(CCCC5)CC4)c(F)c3)ccc2[nH]1)[C@@H](C)OC [Compound 7b]
EC50 [1]: 10.3 pM | EC50 [2]: 1.44 pM | GT1a-NS5A-Y93H Fold change [3]: 502 | EC50 [3]: 903 pM | EC50 [4]: 1.8 pM | GT1a-NS5A-L31V Fold change [5]: 3.4 | EC50 [5]: 6.1 pM | CC50 at 3 days [6, 13]: > 200 pM | EC50 [7, 14]: 3.3 pM

COC(=O)N[C@H](C(=O)N1CCC[C@H]1c1nc2cc([C@H]3CC[C@H](c4cc5nc([C@@H]6CCCN6C(=O)[C@@H](NC(=O)OC)[C@@H](C)OC)[nH]c5cc4F)N3c3cc(F)c(N4CC[Si](C)(C)CC4)c(F)c3)c(F)cc2[nH]1)[C@@H](C)OC [Compound 9b]
EC50 [1]: 3.8 pM | EC50 [8]: 2.49 pM | EC50 [2]: 1.01 pM | GT1a-NS5A-Y93H Fold change [3]: 20.0 | EC50 [3]: 40 pM | EC50 [9]: 6.08 pM | EC50 [4]: 2 pM | GT1a-NS5A-L31V Fold change [5]: 0.9 | EC50 [5]: 1.7 pM | CC50 at 3 days [6, 13]: > 200 pM | EC50 [7, 14]: 5.28 pM | CC50 at 3 days [10]: > 100 pM | EC50 [11]: 1.13 pM

COC[C@H]1C[C@@H](C(=O)Nc2ccc([C@H]3CC[C@H](c4cc5[nH]c([C@@H]6CCCN6C(=O)[C@@H](NC(=O)OC)[C@@H](C)OC)nc5cc4F)N3c3cc(F)c(N4CC[Si](C)(C)CC4)c(F)c3)cc2)N(C(=O)[C@@H](NC(=O)OC)[C@@H](C)OC)C1 [Compound 17b]
EC50 [12]: 2.68 pM | EC50 [1]: 5.71 pM | EC50 [8]: 1.66 pM | EC50 [9]: 4.66 pM | CC50 at 3 days [6, 13]: > 200 pM | EC50 [7, 14]: 3.06 pM | CC50 at 3 days [10]: > 100 pM | EC50 [11]: 1.09 pM

COC(=O)N[C@H](C(=O)N1CCC[C@H]1C(=O)Nc1ccc([C@@H]2CC[C@@H](c3ccc(NC(=O)[C@@H]4CCCN4C(=O)[C@@H](NC(=O)OC)[C@@H](C)OC)cc3)N2c2cc(F)c(N3CC[Si]4(CCCCC4)CC3)c(F)c2)cc1)[C@@H](C)OC [Compound 11a]
EC50 [1]: 8.8 pM | CC50 at 3 days [6]: > 200 pM | EC50 ([7]; Huh-7, 72 h): 1.34 pM | EC50 [11]: 1.69 pM

COC(=O)N[C@H](C(=O)N1CCC[C@H]1C(=O)Nc1ccc([C@H]2CC[C@H](c3cc4[nH]c([C@@H]5CCCN5C(=O)[C@@H](NC(=O)OC)[C@@H](C)OC)nc4cc3F)N2c2cc(F)c(N3CC[Si](C)(C)CC3)c(F)c2)cc1)[C@@H](C)OC [Compound 14b]
EC50 [1]: 6.11 pM | EC50 [8]: 1.59 pM | EC50 [2]: 1.07 pM | EC50 [9]: 5.37 pM | EC50 [4]: 2.9 pM | GT1a-NS5A-L31V Fold change [5]: 11.0 | EC50 [5]: 32 pM | CC50 at 3 days [6, 13]: > 200 pM | EC50 [7, 14]: 2.92 pM | CC50 at 3 days [10]: > 100 pM | EC50 [11]: 1.12 pM

COC[C@H]1C[C@@H](C(=O)Nc2ccc([C@H]3CC[C@H](c4ccc5nc([C@@H]6CCCN6C(=O)[C@@H](NC(=O)OC)[C@@H](C)OC)[nH]c5c4)N3c3cc(F)c(N4CC[Si](C)(C)CC4)c(F)c3)cc2)N(C(=O)[C@@H](NC(=O)OC)[C@@H](C)OC)C1 [Compound 18b]
EC50 [12]: 1.15 pM | EC50 [1]: 7.14 pM | EC50 [9]: 4.5 pM | CC50 at 3 days [6, 13]: > 200 pM | EC50 [7, 14]: 2.59 pM | CC50 at 3 days [10]: > 100 pM | EC50 [11]: 1.75 pM
